Test in all cases: NCI-60 cell line screen, 48 h
Assay [1] has as its system 786-0 renal.
The test system of assay [2] is A549 NSCLC.
The test system of assay [3] is ACHN renal.
The subject of assay [4] is DU-145 prostate.
Assay [5] concerns HT29 colon.
Assay [6] concerns K-562 leukemia.
The subject of assay [7] is OVCAR-4 ovarian.
The subject of assay [8] is SF-295 CNS.
Assay [9] relates to SK-MEL-2 melanoma.
Assay [10] deals with T-47D breast.

The source of these data is PubChem BioAssay (NCI).

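Values below derive from 48-hour exposures of cells grown in 96-well plates, with endpoints linearly interpolated between the two concentrations bracketing the appropriate inhibition level. Abbreviation: GI50, concentration required for 50% inhibition of growth. TGI is the concentration that stops growth completely.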

With `COC(=O)c1ccc(OCCn2nnc(C(=O)NN)c2C(=O)NN)cc1`, the TGI in [1], in assay [2], in [3], in [4], in [5] and in assay [6] was greater than 100 µM each time. In addition, the TGI in assay [7], in [8] and in assay [9] was greater than 100 µM in each case.

Turning to `Nc1cc(OCC2CCCCC2)nc(N)n1`, the TGI in [1], in assay [2], in [3], in [4], in assay [5] and in [6] was greater than 100 µM throughout. The TGI in [7], in assay [8] and in assay [9] was greater than 100 µM each time.

Take `COc1ccc2c(c1)/C(=C\c1c(Cl)nc3n1CCS3)C(=O)N2`: the TGI in assay [1] was 45.9 µM; in assay [2], greater than 100 µM; in assay [3], greater than 100 µM; in [4], 72.5 µM; in assay [5], 16.3 µM; in [6], greater than 100 µM. The values for the TGI in assay [7], in assay [8] and in assay [10] were greater than 100 µM, 44.5 µM and 32.7 µM, respectively.

With `CC1=NNC(=O)C1C1(C(=O)O)CC(c2c[nH]c3ccccc23)=NC(=S)N1` (stereo not given), the TGI in [1] was greater than 100 µM; in assay [2], greater than 100 µM; in assay [3], greater than 100 µM; in assay [4], greater than 100 µM; in [5], 78.9 µM; in assay [6] it was 73.9 µM. Also, the TGI in assay [8] was 91.1 µM; in assay [9] it was 81.2 µM; in [10], greater than 100 µM.

For the compound `O=C1C=C(NCCc2ccc(O)c([N+](=O)[O-])c2)C(=O)c2[nH]cnc21`, the TGI in [1] is greater than 100 µM; in assay [2], 93.4 µM; in [3] it was greater than 100 µM; in assay [5] it was greater than 100 µM; in [6], 42.7 µM; in assay [8], 31.1 µM. Further, the values for the TGI in [9] and in assay [10] were 51.1 µM and 40.7 µM, respectively.

Turning to `Nc1nnc(N)n1N`, the TGI in assay [1], in assay [2], in [3], in [5], in [6] and in assay [7] was greater than 100 µM throughout. Moreover, the TGI in [8] and in [9] was greater than 100 µM in each case.

Consider `CCC1(O)C(=O)OCc2c1cc1n(c2=O)Cc2cc3cc4c(cc3nc2-1)OCO4` (stereo not given), for which the TGI in [1] is 0.102 µM; in [2], 0.259 µM; in assay [4] it was greater than 100 µM; in [5], 19.9 µM; in [6] it was greater than 100 µM; in [7], 1.49 µM. Moreover, the figures for the TGI in [8], in assay [9] and in assay [10] were 0.198 µM, 2.01 µM and greater than 100 µM, respectively.

As for `COc1ccc(-c2c(C#N)c(N)[nH]c(=S)c2C#N)cc1`, the TGI in [1] is 47.3 µM; in [2] it was greater than 100 µM; in [3] it was greater than 100 µM; in assay [4], greater than 100 µM; in [5], greater than 100 µM; in assay [6] it was greater than 100 µM. Also, the TGI in assay [7], in [8] and in assay [9] was greater than 100 µM in each case.

With `COc1cc(/C=C/c2ccc(OC)c(OC)c2)oc(=O)c1`, the TGI in assay [2], in [5], in assay [6], in [7], in assay [8] and in assay [9] was greater than 250 µM throughout.

Regarding `O=C1c2c(c3c4cc(F)ccc4oc3c3[nH]c4ccccc4c23)C(=O)N1O`, the GI50 in [2] was 27.1 µM; in assay [3], 0.398 µM; in [4], 2.15 µM; in [5], 3.06 µM; in assay [6], 2.09 µM; in assay [7], 4.82 µM. In addition, the figures for the GI50 in assay [8], in [9] and in [10] were 2.33 µM, 3.06 µM and 1.59 µM, respectively. For the same compound, the TGI in assay [2] is greater than 100 µM; in assay [3], 1.73 µM; in [4] it was greater than 100 µM; in assay [5], greater than 100 µM; in [6] it was greater than 100 µM; in assay [7] it was greater than 100 µM. Also, the figures for the TGI in [8], in assay [9] and in assay [10] were 9 µM, 12.6 µM and greater than 100 µM, respectively.

Turning to `COc1ccc(C2CC(c3sc(Nc4ccc(C)cc4)nc3C)=NN2)cc1` (stereo not given), the TGI in [2] was found to be 33 µM; in assay [5] it was 25.6 µM; in [6], 39.1 µM; in [7], 18.3 µM; in assay [8], 30.5 µM; in [9] it was 30.7 µM.

Regarding `COc1ccc(-c2cc(-c3ccc(C)cc3)n(C3OC(COC(C)=O)C(OC(C)=O)C(OC(C)=O)C3OC(C)=O)c(=S)c2C#N)cc1` (stereo not given), the TGI in assay [1], in assay [2], in [3], in assay [4], in [5] and in assay [6] was greater than 100 µM each time. Besides, the TGI in assay [7], in assay [8] and in assay [10] was greater than 100 µM each time.

Consider `O=[N+]([O-])c1ccc(C[P+]2(c3ccccc3)CCCCC2)cc1` (tested in a mixture with another compound), for which the TGI in assay [1], in [2], in assay [3], in assay [6], in [7] and in [8] was greater than 100 µM throughout. The compound further displayed a TGI in assay [9] greater than 100 µM.

As for `CC(O)C(CO)NC(=O)C1CSSCC(NC(=O)C(N)Cc2ccccc2)C(=O)NC(Cc2ccccc2)C(=O)NC(Cc2c[nH]c3ccccc23)C(=O)NC(CCCCN)C(=O)NC(C(C)O)C(=O)N1` (stereo not given), the TGI in assay [1], in assay [2], in assay [3], in assay [4], in assay [5] and in assay [6] was greater than 100 µM in each case. For the same compound, the TGI in assay [7], in assay [8] and in [10] was greater than 100 µM each time.
